Assay results from US20250281446A1, “COMPOSITIONS, SYSTEMS, AND METHODS FOR TREATING CANCER IN STANDARD OF CARE AND/OR PROFIBROTIC CHEMOTHERAPEUTIC AGENT-NAÏVE PATIENTS USING TUMOR TREATING FIELDS AND CHEMOTHERAPEUTIC AGENTS” (Novocure GmbH, priority 2024, published 2025).

Legend:
[1] = tested on: platinum-resistant ovarian cancer (PROC); test: Randomized phase 3 study ENGOT-ov50/GOG-3029/INNOVATE-3 (NCT03940196): TTFields therapy with weekly paclitaxel vs weekly paclitaxel alone; format: in vivo, human
Text: This randomized phase 3 study investigated TTFields therapy with paclitaxel (TTFields+PTX) vs paclitaxel (PTX) in patients with platinum-resistant ovarian cancer (PROC).
To evaluate the safety and efficacy of TTFields therapy with weekly paclitaxel compared to weekly paclitaxel alone in PROC, the Phase 3 study design shown in FIG. 1 was utilized. ENGOT-ov50/GOG-3029/INNOVATE-3 (NCT03940196) enrolled adults with PROC, ≤5 prior lines of therapy (LOT), ≤2 prior LOT following platinum-resistance, and ECOG 0-1. Patients received TTFields (200 kHz; ≥18 hours/day)+PTX (80 mg/m^2) weekly or PTX. Primary endpoint was overall survival (OS). 558 patients were randomized to receive TTFields+PTX (n=280) or PTX (n=278) March 2019 to November 2021.
Patients were heavily pretreated in the ITT population, as 24.4% of patients had received 4+prior lines of therapy (LOT), and 65.9% had received prior bevacizumab. In the overall intention-to-treat population, TTFields therapy median duration was 15.9 (0.1-159.7) weeks.
Innovate-3 study excluding patients that had received doxorubicin prior to TTFields+Paclitaxel or Paclitaxel
This Example contains further data related to the study of Example 1. FIGS. 10-11 include data of PROC patients that had received doxorubicin prior to treatment or were Doxorubicin-/PLD-naïve and which received treatment comprising TTFields plus Paclitaxel or Paclitaxel alone. With Doxorubicin treatment prior to use, overall survival was 10.97 months with TTFields and 13.21 months without TTFields. […] In addition, without prior use of doxorubicin/PLD, the hazard ratio for TTFields was 0.593 with a p value of 0.005.

tumor = test: Preclinical data (unpublished): tumor fibrosis and tissue conductivity

SMILES	overall survival ([1]; Doxorubicin-/PLD-naïve group without prior use of doxorubicin (Example 2, FIGS. 10-11))	overall survival, post-hoc analysis ([1]; PLD-naïve subgroup (Example 1, FIG. 7), TTFields+PTX n=113, PTX n=88)	median overall survival (OS) ([1]; overall ITT population, PROC patients, PTX 80 mg/m^2 weekly, TTFields 200 kHz, ≥18 hours/day)	overall survival ([1]; patients with Doxorubicin treatment prior to use (Example 2, FIG. 10))	tissue conductivity (tumor)	tumor fibrosis (tumor)
CC(=O)O[C@H]1C(=O)[C@@]2(C)[C@H]([C@H](OC(=O)c3ccccc3)[C@]3(O)C[C@H](OC(=O)[C@H](O)[C@@H](NC(=O)c4ccccc4)c4ccccc4)C(C)=C1C3(C)C)[C@]1(OC(C)=O)CO[C@@H]1C[C@@H]2O [PTX, paclitaxel]	11.93 months	11.7 months	11.9 months	13.21 months		
COc1cccc2c1C(=O)c1c(O)c3c(c(O)c1C2=O)C[C@@](O)(C(=O)CO)C[C@@H]3O[C@H]1C[C@H](N)[C@H](O)[C@H](C)O1 [doxorubicin]					changes tissue conductivity	induces tumor fibrosis
